The text below walks through data of patent US20250376464A1 (Trawsfynydd Therapeutics, Inc., priority 2022, published 2025).

As usually defined, the IC50 is the concentration at which inhibition is half-maximal.

The target in the test is SARS-CoV2-Mpro (Severe acute respiratory syndrome coronavirus 2 (2019-nCoV) (SARS-CoV-2), UniProt P0DTD1). In words: Primary assay: SARS-CoV2-Mpro enzymatic activity inhibition. It counts as biochemical. The note with it: enzyme preincubated with compound for 20 min; slope of linear portion of signal. How it is done: Example A. Primary Assay Used to Determine Potency of SARS-CoV2-Mpro Enzymatic Activity Inhibition
• (1) Deliver 2× Enzyme • (2) Deliver buffer into No Enzyme wells • (3) Deliver compounds in 100% DMSO by using Acoustic technology (Echo550; nanoliter range) • (4) Incubate for 20 min • (5) Deliver 2× Substrate to initiate the reaction • (6) Spin & shake, start measuring in EnVision at rt; 5 min interval for 25 (2 hours) • (7) Analyze data by taking slope (signal/time) of linear portion of measurement • (8) Slope is calculated by using Excel, and curve fits are performed using Prism software.
The % inhibition was then used to calculate the IC50 values. The IC50 values are shown in Table A, wherein “A” corresponds to IC50<10.0 nm, “B” corresponds to 10.0 nm≤IC50<50.0 nm, “C” corresponds to 50.0 nm≤IC50<100.0 nm, “D” corresponds to 100.0 nm≤IC50<500.0 nm, and “E” corresponds to 500.0 nm≤IC50<1000.0 nm, and “F” corresponds to 1000.0 nm≤IC50.
For the compound `CCOC(=O)N[C@@H](CC(C)C)C(=O)N1C[C@H]2C([C@H]1C(=O)N[C@H](C#N)CC1C(=O)Nc3ccccc31)C2(C)C` (stereo in doubt) [Compound 246, ethyl N-[(1S)-1-[(1S,2S,5S)-2-[[(1S)-1-cyano-2-(2-oxoindolin-3-yl)ethyl]carbamoyl]-6,6-dimethyl-3-azabicyclo[3.1.0]hexane-3-carbonyl]-3-methyl-butyl]carbamate], the IC50 was in the range of 10 to 50 nM.

As to `CC(C)(C)[C@H](NC(=O)C(F)(F)F)C(=O)N1C[C@H]2C([C@H]1C(=O)N[C@H](C#N)Cn1c(=O)[nH]c3ccccc31)C2(C)C` (stereo in doubt) [Compound 301, (1R,2S,5S)—N—((S)-1-cyano-2-(2-oxo-2,3-dihydro-1H-benzo[d]imidazol-1-yl)ethyl)-3-((S)-3,3-dimethyl-2-(2,2,2-trifluoroacetamido)butanoyl)-6,6-dimethyl-3-azabicyclo[3.1.0]hexane-2-carboxamide], the IC50 was ≥ 1000 nM.

As to `CC(C)(C)[C@H](NC(=O)C(F)(F)F)C(=O)N1C[C@H]2[C@H]([C@H]1C(=O)N[C@H](C#N)CC1C(=O)Nc3ccc(Cl)cc31)C2(C)C` (stereo partly drawn) [Compound 218, (1S,2S,5S)-N-[(1S)-2-(5-chloro-2-oxo-indolin-3-yl)-1-cyano-ethyl]-3-[(2S)-3,3-dimethyl-2-[(2,2,2-trifluoroacetyl)amino]butanoyl]-6,6-dimethyl-3-azabicyclo[3.1.0]hexane-2-carboxamide], the IC50 was in the range of 10 to 50 nM.

With `CC(C)(C)[C@H](NC(=O)C(F)(F)F)C(=O)N1C[C@H]2[C@H]([C@H]1C(=O)N[C@H](C#N)CC1C(=O)Nc3cc(Cl)ccc31)C2(C)C` (stereo partly drawn) [Compound 219, (1S,2S,5S)-N-[(1S)-2-(6-chloro-2-oxo-indolin-3-yl)-1-cyano-ethyl]-3-[(2S)-3,3-dimethyl-2-[(2,2,2-trifluoroacetyl)amino]butanoyl]-6,6-dimethyl-3-azabicyclo[3.1.0]hexane-2-carboxamide], the IC50 is 10 to 50 nM.

As to `Cc1ccc2c(c1)C(C[C@@H](C#N)NC(=O)[C@@H]1[C@H]3[C@H](CN1C(=O)[C@@H](NC(=O)C(F)(F)F)C(C)(C)C)C3(C)C)C(=O)N2` (stereo partly drawn) [Compound 220, (1S,2S,5S)-N-[(1S)-1-cyano-2-(5-methyl-2-oxo-indolin-3-yl)ethyl]-3-[(2S)-3,3-dimethyl-2-[(2,2,2-trifluoroacetyl)amino]butanoyl]-6,6-dimethyl-3-azabicyclo[3.1.0]hexane-2-carboxamide], the IC50 fell in the range of 10 to 50 nM.

`COc1ccc2c(c1)C(C[C@@H](C#N)NC(=O)[C@@H]1[C@H]3[C@H](CN1C(=O)[C@@H](NC(=O)C(F)(F)F)C(C)(C)C)C3(C)C)C(=O)N2` (stereo partly drawn) [Compound 221, (1S,2S,5S)-N-[(1S)-1-cyano-2-(5-methoxy-2-oxo-indolin-3-yl)ethyl]-3-[(2S)-3,3-dimethyl-2-[(2,2,2-trifluoroacetyl)amino]butanoyl]-6,6-dimethyl-3-azabicyclo[3.1.0]hexane-2-carboxamide]: the IC50 is < 10 nM.

For the compound `COc1ccc2c(c1)NC(=O)C2C[C@@H](C#N)NC(=O)[C@@H]1[C@H]2[C@H](CN1C(=O)[C@@H](NC(=O)C(F)(F)F)C(C)(C)C)C2(C)C` (stereo partly drawn) [Compound 222, (1S,2S,5S)-N-[(1S)-1-cyano-2-(6-methoxy-2-oxo-indolin-3-yl)ethyl]-3-[(2S)-3,3-dimethyl-2-[(2,2,2-trifluoroacetyl)amino]butanoyl]-6,6-dimethyl-3-azabicyclo[3.1.0]hexane-2-carboxamide], the IC50 was 10 to 50 nM.

In the case of `CC(C)(C)[C@H](NC(=O)C(F)(F)F)C(=O)N1C[C@H]2[C@H]([C@H]1C(=O)NC(C#N)CC1C(=O)Nc3ccccc31)C2(C)C` (stereo partly drawn) [Compound 226, (1S,2S,5S)—N-[1-cyano-2-(2-oxoindolin-3-yl)ethyl]-3-[(2S)-3,3-dimethyl-2-[(2,2,2-trifluoroacetyl)amino]butanoyl]-6,6-dimethyl-3-azabicyclo[3.1.0]hexane-2-carboxamide], the IC50 is < 10 nM.

For `CC(C)CCN(C(=O)[C@@H]1[C@@H]2[C@H](CN1C(=O)[C@@H](NC(=O)C(F)(F)F)C(C)(C)C)C2(C)C)[C@H](C#N)C[C@@H]1C(=O)Nc2ccccc21` [Compound 247, (1R,2S,5S)-N-[(1S)-1-cyano-2-(2-oxoindolin-3-yl)ethyl]-3-[(2S)-3,3-dimethyl-2-[(2,2,2-trifluoroacetyl)amino]butanoyl]-N-isopentyl-6,6-dimethyl-3-azabicyclo[3.1.0]hexane-2-carboxamide], the IC50 is ≥ 1000 nM.

For the compound `CCCN(C(=O)[C@@H]1[C@@H]2[C@H](CN1C(=O)[C@@H](NC(=O)C(F)(F)F)C(C)(C)C)C2(C)C)[C@H](C#N)C[C@@H]1C(=O)Nc2ccccc21` [Compound 248, (1R,2S,5S)-N-[(1S)-1-cyano-2-(2-oxoindolin-3-yl)ethyl]-3-[(2S)-3,3-dimethyl-2-[(2,2,2-trifluoroacetyl)amino]butanoyl]-6,6-dimethyl-N-propyl-3-azabicyclo[3.1.0]hexane-2-carboxamide], the half-inhibitory concentration (IC50) was ≥ 1000 nM.

As for `CC(C)(C)[C@H](NC(=O)C(F)(F)F)C(=O)N1C[C@H]2[C@@H]([C@H]1C(=O)NC(C#N)CC1C(=O)Nc3ncccc31)C2(C)C` (stereo partly shown) [Compound 249], the half-inhibitory concentration (IC50) fell in the range of 500 to 1000 nM.

As for `CC(C)(C)[C@H](NC(=O)C(F)(F)F)C(=O)N1C[C@H]2[C@@H]([C@H]1C(=O)NC(C#N)CCC1C(=O)Nc3ccccc31)C2(C)C` (stereo partly drawn) [Compound 250, (1R,2S,5S)—N-[1-Cyano-3-(2-oxoindolin-3-yl)propyl]-6,6-dimethyl-3-[(2S)-3,3-dimethyl-2-[(2,2,2-trifluoroacetyl)amino]butanoyl]-3-azabicyclo[3.1.0]hexane-2-carboxamide], the IC50 lay in the range of 500 to 1000 nM.

For `CC(C)(C)[C@H](NC(=O)C(F)(F)F)C(=O)N1C[C@H]2[C@H]([C@H]1C(=O)N[C@H](C#N)Cn1nnc3ccccc31)C2(C)C` [Compound 308, (1S,2S,5S)-N-[(1S)-2-(benzotriazol-1-yl)-1-cyano-ethyl]-3-[(2S)-3,3-dimethyl-2-[(2,2,2-trifluoroacetyl)amino]butanoyl]-6,6-dimethyl-3-azabicyclo[3.1.0]hexane-2-carboxamide], the 50% inhibitory concentration (IC50) is ≥ 1000 nM.
